Key:
Format in all cases: in vivo
[1] = system: barnyardgrass (Echinochloa crus-galli); assay: Test B flooded paddy test; conditions: 250 g ai/ha, Flood, visual rating on scale of 0 to 100 where 0 is no effect and 100 is complete control, 13 to 15 d after treatment
Outline: (§1)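 Ratings use a 0-100 visual scale, where 100 is complete control, and compare treated plants with controls after 13 to 15 d of greenhouse growth. Compound went straight into paddy water kept 3 cm over the soil surface, applied to seedlings at the 2-leaf stage.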

[2] = system: ducksalad (Heteranthera limosa); assay: Test B flooded paddy test; conditions: 250 g ai/ha, Flood, visual rating on scale of 0 to 100 where 0 is no effect and 100 is complete control, 13 to 15 d after treatment
Outline: as §1

rice (Oryza sativa) = assay: Test B flooded paddy test; conditions: 250 g ai/ha, Flood, visual rating on scale of 0 to 100 where 0 is no effect and 100 is complete control, 13 to 15 d after treatment
Outline: as §1

[3] = system: sedge, umbrella (small-flower umbrella sedge, Cyperus difformis); assay: Test B flooded paddy test; conditions: 250 g ai/ha, Flood, visual rating on scale of 0 to 100 where 0 is no effect and 100 is complete control, 13 to 15 d after treatment
Outline: as §1

[4] = system: ragweed (common ragweed, Ambrosia elatior); assay: Test C greenhouse herbicide test, pre- and postemergence
Outline: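 Greenhouse pots; pre-em on seeded loam:sand blend, post-em on 2–18 cm plants (1–4 leaf) in sphagnum peat/vermiculite medium. Formulation: non-phytotoxic solvent + surfactant. Read-out: visual % control (0–100) vs controls at 13–15 d.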

[5] = system: chickweed (common chickweed, Stellaria media); assay: Test C greenhouse herbicide test, postemergence
Outline: (§2)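 Visual injury scores (0–100, where 100 means complete control) were assigned 13 to 15 d after postemergence application, by comparison with untreated plants. Treated seedlings stood 2 to 18 cm tall, at the 1- to 4-leaf stage.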

kochia (Kochia scoparia) = assay: Test C greenhouse herbicide test, postemergence
Outline: as §2

[6] = system: oat, wild (wild oat, Avena fatua); assay: Test C greenhouse herbicide test, postemergence
Outline: as §2

[7] = Postemergence, 31 g ai/ha, 0 to 100 scale (0 no effect, 100 complete control)
[8] = Postemergence, 125 g ai/ha, scale 0 to 100, 0 is no effect, 100 is complete control
[9] = Postemergence, 250 g ai/ha, scale 0 to 100, 0 no effect, 100 complete control, 13 to 15 d
[10] = postemergence, 62 g ai/ha, scale 0 to 100, 0 no effect, 100 complete control
[11] = Preemergence, 31 g ai/ha, scale 0 to 100, 0 is no effect, 100 is complete control
[12] = Preemergence, 62 g ai/ha, scale 0 to 100, 0 is no effect, 100 is complete control
[13] = Preemergence, 125 g ai/ha, scale 0 to 100, 0 is no effect, 100 is complete control
[14] = Preemergence, 250 g ai/ha, scale 0 to 100 (0 no effect, 100 complete control)
[15] = Postemergence, 31 g ai/ha, scale 0 to 100 (0 no effect, 100 complete control)
[16] = Postemergence, 62 g ai/ha, 0 to 100 scale (0 no effect, 100 complete control)
[17] = postemergence, 125 g ai/ha, scale 0 to 100, 0 no effect, 100 complete control

SMILES	Ragweed plant response rating [4, 7]	Plant response rating, Ragweed [4, 8]	Plant response rating, Ragweed [4, 9]	Ragweed plant response rating [4, 10]	Chickweed plant response rating [5, 7]	Plant response rating, Chickweed [5, 8]	Plant response rating, Chickweed [5, 9]	Chickweed plant response rating [5, 10]	Kochia plant response rating (kochia (Kochia scoparia); [7])	Plant response rating, Kochia (kochia (Kochia scoparia); [8])	Plant response rating, Kochia (kochia (Kochia scoparia); [9])	Kochia plant response rating (kochia (Kochia scoparia); [10])	Oat, Wild plant response rating [6, 7]	Plant response rating, Oat, Wild [6, 8]	Plant response rating, Oat, Wild [6, 9]	Oat, Wild plant response rating [6, 10]	Plant response rating, Barnyardgrass [1]	Plant response rating, Ducksalad [2]	Plant response rating, Rice (rice (Oryza sativa))	Plant response rating, Sedge, Umbrella [3]	other results
CC(=O)Oc1c(C)nn(C)c(=O)c1-c1c(C)oc2ccc(C)cc12 [Compound 14, 5-(acetyloxy)-4-(2,5-dimethyl-3-benzofuranyl)-2,6-dimethyl-3(2H)-pyridazinone]	15	50	98	90	90	90	90	90	85	90	90	85	10	40	45	30					pest or weed control at 250 g/ha ([1]; Echinochloa crus-galli, 360 h, read-out: Plant response rating, Barnyardgrass): 0%; pest or weed control at 250 g/ha ([2]; Heteranthera limosa, 360 h, read-out: Plant response rating, Ducksalad): 0%; plant injury at 250 g/ha (rice (Oryza sativa); Oryza sativa, 360 h, read-out: Plant response rating, Rice): 0%; pest or weed control at 250 g/ha ([3]; Cyperus difformis, 360 h, read-out: Plant response rating, Sedge, Umbrella): 0%
Cc1cc(C)c2sc(C)c(-c3c(OC(=O)OC(C)C)c(C)nn(C)c3=O)c2c1 [Compound 67]	70	98	95	75	90	95	95	95	0	35	80	30	80	90	100	85	0	0	0	0	Plant response rating, Ragweed [4, 11]: 60; Plant response rating, Ragweed [4, 12]: 85; Plant response rating, Ragweed [4, 13]: 100; Ragweed plant response rating [4, 14]: 98
C#CCOC(=O)Oc1c(C)nn(C)c(=O)c1-c1c(C)sc2ccc(C)cc12 [Compound 87]		95	100	95	90	95	98	90		90	95	90		85	90	90	0	0	0	0	Plant response rating, Ragweed [4, 11]: 90; Plant response rating, Ragweed [4, 12]: 90; Plant response rating, Ragweed [4, 13]: 95; Ragweed plant response rating [4, 14]: 90
COc1nn(C)c(=O)c(-c2c(C)sc3ccccc23)c1O [Compound 33]	85	90	98	95	85	90	95	90	20	40	50	5	35	40	45	30	0	0	0	0	
Cc1sc2ccc(Cl)cc2c1-c1c(OS(C)(=O)=O)c(Cl)nn(C)c1=O [Compound 114]		98	100			98	98	95		90	95			65	85		0	50	0	70	Plant response rating, Ragweed [4, 15]: 90; Plant response rating, Ragweed [4, 11]: 55; Plant response rating, Ragweed [4, 12]: 75; Plant response rating, Ragweed [4, 13]: 95; Ragweed plant response rating [4, 14]: 98; Plant response rating, Chickweed [5, 15]: 90; Plant response rating, Kochia (kochia (Kochia scoparia); [15]): 30; Plant response rating, Oat, Wild [6, 15]: 40
COC(=O)Oc1c(C)nn(C)c(=O)c1-c1c([N+](=O)[O-])ccc2ccccc12 [Compound 162]			90				95				90				70		0	0	0	0	Plant response rating, Ragweed [4, 15]: 70; Ragweed plant response rating [4, 16]: 85; Ragweed plant response rating [4, 17]: 75; Plant response rating, Chickweed [5, 15]: 90; Chickweed plant response rating [5, 16]: 90; Chickweed plant response rating [5, 17]: 95; Plant response rating, Kochia (kochia (Kochia scoparia); [15]): 70; Kochia plant response rating (kochia (Kochia scoparia); [16]): 80; Kochia plant response rating (kochia (Kochia scoparia); [17]): 90; Plant response rating, Oat, Wild [6, 15]: 50; Oat, Wild plant response rating [6, 16]: 60; Oat, Wild plant response rating [6, 17]: 70
Cc1nn(C)c(=O)c(-c2c(C)sc3ccccc23)c1O [Compound 65]	55	80	90	85	55	90	90	90	90	90	100	90	25	50	70	35	0	0	0	0	
CC(=O)Oc1c(C#N)nn(C)c(=O)c1-c1c(C)ccc2ccccc12 [Compound 98]		98	100	98	95	100	100	100		60	80	20		95	100	80	45	75	30	60	

From patent US10597388B2, “Pyridazinone herbicides” (FMC CORPORATION, priority 2014, dated 2020)
